Like-named read-outs stand apart in the source and are kept apart here.
Columns and labels:
[1] = test system: phospho-Akt1 S129; test: Western blot of phospho-Akt1 S129 (CK2 substrate) in HeLa cells; type: cell-based, human; conditions: for IC50: Homo sapiens, read-out: IC50 pS129 AKT phosphorylation
Source text: (§1) . These substrates were selected based on their different responses to kinase inhibition. S129Akt was described in 2015 as a specific CK2 substrate, and its phosphorylation is highly sensitive to CK2 inhibition showing a strong early reduction. On the contrary, S13-cdc37, described in 2004 as a CK2-specific substrate, requires higher inhibitor concentrations or longer exposure times to achieve a significant impact on its phosphorylation. The phosphorylation of both substrates is reduced in CK2-knockout cells. Moreover, to gain a more comprehensive view of CK2 substrate phosphorylation, we used a phosphoantibody developed against p-Ser/p-Thr containing a CK2 consensus sequence (pS/pTDXE motif).

[2] = test system: phospho-cdc37 S13; test: Western blot of phospho-cdc37 S13 (CK2 substrate) in HeLa cells; type: cell-based, human; conditions: 24 h
Source text: as §1

[3] = test system: phospho-Akt1 S129; test: Western blot of phospho-Akt1 S129 (CK2 substrate) in MDA-MB-231 cells; type: cell-based; conditions: for IC50: Homo sapiens, read-out: IC50 pS129 AKT phosphorylation
Source text: (§2) We repeated the same treatments using a different cell line, breast cancer MDA-MB-231. […] . Even though MDA-MB-231 was less responsive to the two CK2 inhibitors than HeLa cells, the overall outcome appeared similar. […] .

[4] = test system: phospho-cdc37 S13; test: Western blot of phospho-cdc37 S13 (CK2 substrate) in MDA-MB-231 cells; type: cell-based; conditions: Homo sapiens, read-out: IC50 pS13 cdc37 phosphorylation
Source text: as §2

[5] = test system: HeLa cells; test: MTT cell viability assay, HeLa; type: cell-based, human
Method: (§3) One hour before the end of the incubations, 10 μL of MTT solution (5 mg/mL in PBS) was added to each well. […] Plates were read at λ 540 nm absorbance, in a Titertek Multiskan Plus plate reader (Flow Laboratories, Sutton, UK).

[6] = test system: MDA-MB-231 cells; test: MTT cell viability assay, MDA-MB-231; type: cell-based; conditions: for Effect on cell viability (reduction): MDA cells, 2.5 µM
Method: as §3

[7] = test system: CSNK2A1; set-up: method as in PMID 41883516; conditions: cited from earlier work
[8] = test system: PARP-1; test: PARP-1 degradation/cleavage by Western blot, HeLa; conditions: HeLa cells
[9] = set-up: method as in PMID 37901516; conditions: 30 min of incubation; cited from earlier work
[10] = cited from earlier work
[11] = test system: PARP-1; test: PARP-1 degradation/cleavage by Western blot, MDA-MB-231; type: cell-based; conditions: MDA-MB-231 cells
[12] = set-up: method as in PMID 37077385; conditions: preliminary proliferation assays; cited from earlier work
[13] = MDA-MB-231 cells, 24 h, densitometry of Western blot

SMILES: O=C(O)c1ccc2c(c1)nc(Nc1cccc(Cl)c1)c1ccncc12 [CX-4945]
- Phosphorylation of Akt at Ser129 ([1]; HeLa cells, 2.5 µM (lowest concentration tested), 24 h): completely abolished
- IC50 ([1]; HeLa cells, 24 h, densitometry of Western blot): 700 nM
- IC50 ([2]; Homo sapiens, HeLa cells, densitometry of Western blot, read-out: IC50 pS13 cdc37 phosphorylation): 3000 nM
- IC50 [3, 13]: 900 nM
- IC50 [4, 13]: 4400 nM
- Effect on cell viability (reduction) ([5]; HeLa cells, 2.5 µM, 24 h, MTT): ~ 20%
- Effect on cell viability (reduction) ([5]; HeLa cells, 2.5 µM, 48 h, MTT): ~ 30%
- Effect on cell viability (reduction) ([6]; 24 h, MTT): ~ 5%
- Effect on cell viability (reduction) ([6]; 48 h, MTT): ~ 15%
- Significantly downregulated phosphopeptides determined to be CSNK2A1 dependent ([7]; after 4 h of treatment): 15%
- Significantly downregulated phosphopeptides determined to be CSNK2A1 dependent ([7]; after 24 h of treatment): 5%
- Concentration at which PARP-1 degradation (reduction in total PARP-1) is visible ([8]; 24 h): 10 µM
- Concentration at which PARP-1 degradation (reduction in total PARP-1) is visible ([8]; 48 h): 5 µM
- Concentration at which the 89 KDa PARP fragment is detected ([8]; after 48 h (first mention (so in the source))): 5 µM
- Concentration at which the 89 KDa PARP fragment is detected ([8]; after 48 h (second mention)): 2.5 µM

SMILES: CCC(=O)Nc1cc(Nc2cc(NC3CC3)n3ncc(C#N)c3n2)ccc1C [SGC-CK2-1]
- Significantly downregulated phosphopeptides determined to be CSNK2A1 dependent ([7]; after 4 h of treatment): 55%
- Significantly downregulated phosphopeptides determined to be CSNK2A1 dependent ([7]; after 24 h of treatment): 55%
- Compound degraded in vitro in mouse liver microsomes [9]: 60%
- Aqueous solubility [10]: moderate

SMILES: O=C(O)c1ccc2c(c1)nc(NCc1ccccc1)c1ncncc12 [SGC-CK2-2]
- Concentration that nearly abolishes Akt S129 phosphorylation ([1]; HeLa, 24 h treatment): 2.5 µM
- IC50 ([1]; HeLa, 24 h): 2200 nM
- IC50 ([2]; Homo sapiens, HeLa, read-out: IC50 pS13 cdc37 phosphorylation, HeLa cells, 24 h, densitometry of Western blot): 9000 nM
- IC50 ([2]; read-out: IC50 pS13 cdc37 phosphorylation, HeLa cells, densitometry of Western blot): 9900 nM
- IC50 ([3]; MDA-MB-231, 24 h): 1300 nM
- Concentration that nearly abolishes Akt S129 phosphorylation ([3]; MDA, 24 h treatment): 5 µM
- IC50 ([4]; MDA-MB-231, 24 h): 20400 nM
- Reduction in cell viability achieved ([5]; HeLa cells, 24 h, all concentrations tested (up to 40 µM), MTT): < 50%
- Effect on cell viability ([5]; HeLa, 2.5 µM, 24 h treatment): no significant effect
- Effect on cell viability ([6]; MDA, 5 µM, 24 h treatment): no significant effect
- Reduction in cell viability achieved ([6]; MDA-MB-231 cells, 24 h, all concentrations tested (up to 40 µM), MTT): < 50%
- Degradation of PARP-1 ([11]; 24 h, all concentrations tested): did not induce any degradation
- Concentration giving significant PARP-1 degradation ([11]; 48 h): ≥ 20 µM
- Aqueous kinetic solubility relative to SGC-CK2-1 [10]: markedly improved
- Antiproliferative effects [12]: lacks antiproliferative effects
- Concentration at which PARP-1 degradation (reduction in total PARP-1) is visible ([8]; 24 h): 40 µM
- Concentration at which PARP-1 degradation (reduction in total PARP-1) is visible ([8]; 48 h): 20 µM

From paper PMC12562567, “Comparative Efficacy of CK2 Inhibitors CX-4945 and SGC-CK2-2 on CK2 Signaling” (International Journal of Molecular Sciences, 2025)
